Several values for one entry are separate records, joined by “and”; a condition that tells them apart may be missing. Equal values may be shown once.
What was measured:
human skin tissues = test: Skin tissue cell stability experiment (explant tissue culture, HE staining); format: cell-based; settings: 3HP applied at concentrations of 1%, 5%, and 10%, tissues obtained 24 hours after application, FIG. 1
Procedure: The human skin tissues provided for research purposes (IRB No. 4-2023-0054; Institutional Review Board, Severance Medical Center, Yonsei University College of Medicine) was defatted, and washed several times with PBS (phosphate buffered saline; Lonza) to remove residual impurities. The skin tissues were prepared into a size of 1 cm × 1 cm for each test group, and the test composition was applied to the prepared skin tissues, and PBS was applied to the negative control. The skin tissues in which the absorption of the test composition has been completed were cultured in a special medium at 37°C, 5% CO2.
Tissues obtained 24 hours after application of the test composition were fixed with 10% formalin, and then paraffin blocks and paraffin-embedded slides were prepared. The deparaffinized tissues were stained for nuclei with hematoxylin (S3309; dako) solution, and then washed in running water. The cytoplasm was stained with eosin (318906; sigma) solution, and then the tissues were completely dehydrated through washing process and fixed using a mounting solution. The epidermis and papillary dermis of the fixed tissues were photographed at 400x magnification using an optical microscope (BX43F; OLYMPUS).

[1] = DPPH radical scavenging ability (antioxidant power), absorbance at 520 nm; format: biochemical; settings: for Antioxidant power, Average: average of three measurements, 30 min; for Antioxidant power: single measurements (Once, Two times, Three times), 0.5 mM DPPH, room temperature, 30 minutes
Procedure: The DPPH radical expresses a dark purple color. The DPPH radical is reduced by the antioxidant effective ingredient, and the dark purple color is discolored. The performance of the antioxidant effective ingredient can be measured using such characteristics.
The 3HP aqueous solution obtained from Preparation Example 1 was prepared at five different concentrations (0 wt.%, 1 wt.%, 5 wt.%, 10 wt.%, 70 wt.%), 50 µℓ of each 3HP aqueous solution and 150 µℓ of methanol were dispensed into a 96-well plate and reacted at room temperature for 30 minutes. The absorbance (ODcontrol group, wavelength 520 nm) was repeatedly measured three times.
A DPPH aqueous solution containing 0.5 mM DPPH (free radical, 95%, Alfa Aesar) was prepared. 50 µℓ of methanol and 150 µℓ of the DPPH aqueous solution were dispensed into a 96-well plate and reacted at room temperature for 30 minutes. The absorbance (ODnegative control group, wavelength 520 nm) was repeatedly measured three times.
A DPPH aqueous solution containing 0.5 mM DPPH (free radical, 95%, Alfa Aesar) was prepared. The 3HP aqueous solution obtained from Preparation Example 1 was prepared at five different concentrations (0 wt.%, 1 wt.%, 5 wt.%, 10 wt.%, 70 wt.%), and 50 µℓ of each 3HP aqueous solution and 150 µℓ of the DPPH aqueous solution were dispensed into a 96-well plate and reacted at room temperature for 30 minutes. The absorbance (ODexperimental group, wavelength 520 nm) was repeatedly measured three times.
The absorbance at a wavelength of 520 nm was measured using a micro reader.
The DPPH radical scavenging ability (antioxidant power) of 3HP was calculated according to the following Equation 1, and the results are shown in Tables below. [formula]

## O=C(O)CCO [Example 3HP, 3-hydroxypropionic acid]
Human skin tissues
  damage to the epidermis and dermis or separation between tissues: no damage to the epidermis and dermis or separation between tissues were observed
[1]; 3HP treated concentration 1 %
  Antioxidant power, Average: 0.904%
  Antioxidant power: 0.850% and 1.042% and 0.819%
[1]; 3HP treated concentration 5%
  Antioxidant power, Average: 2.474%
  Antioxidant power: 2.452% and 2.552% and 2.419%
[1]; 3HP treated concentration 10 %
  Antioxidant power, Average: 5.175%
  Antioxidant power: 5.209% and 5.205% and 5.111%
[1]; 3HP treated concentration 70 %
  Antioxidant power, Average: 21.011%
  Antioxidant power: 20.888% and 21.142% and 21.002%
[1]; under the treatment concentrations tested (1, 5, 10, 70 wt.%), result in words
  DPPH radical scavenging ability: significant DPPH radical scavenging ability was exhibited

From patent publication EP4684782A1, “COSMETIC COMPOSITION FOR ANTIOXIDATION” (LG Chem, Ltd., priority 2023, dated 2025)
